Data set [1] in a line: Degree of dissolution of the carotenoid in the oily phase: filtration through a 0.45 μm pore size filter, then HPLC of the filtrate. The format is physicochemical. The method, then:
“Dissolving” or “dissolution” means obtaining molecular dispersions or molecular aggregates of a carotenoid which may be monomers, dimers, trimers etc and/or colloidal dispersions of the carotenoid. Assessment of the degree of dissolution of the carotenoid in an oily phase is performed by filtration of the oily phase through a 0.45 μm pore size filter, followed by HPLC determination of the carotenoid content in the filtrate and compared with the total carotenoid concentration in the unfiltered oily phase. “Substantially” means at least 40 wt %.
(§1) The oily astaxanthin solution may be further processed by mixing with fish feed pellets.

The nature of data set [2]: HPLC analysis of trans/cis isomer content and degradation products after in-line heating and cooling. The format is physicochemical. The conditions noted are these: 1 s.
Source text: as §1

Where [3] appears, read: Example 2: 1500 or 250 ppm astaxanthin composition, heated 150° C., then cooled.

Turning to `CC1=C(/C=C/C(C)=C/C=C/C(C)=C/C=C/C=C(C)/C=C/C=C(C)/C=C/C2=C(C)C(=O)[C@@H](O)CC2(C)C)C(C)(C)C[C@H](O)C1=O` [astaxanthin], the “degree of dissolution of astaxanthin after filtration through 0.45 μm filter (HPLC)” value in data set [1] (Example 2: 1500 or 250 ppm astaxanthin composition in soya bean oil/fish oil, heated 150° C., transit time 1 s, then cooled) is listed as “completely solubilised”. In addition, the “degree of dissolution of astaxanthin after filtration through 0.45 μm filter (HPLC)” value in data set [1] (Example 3: 250 ppm astaxanthin composition in soy bean oil/fish oil, heated 126° C., 1 s, then cooled with fish oil of 23° C.) is reported as “completely solubilised”. In data set [2] (setting [3]), the all trans-astaxanthin content came out at 75%, the cis isomers content was determined as 25% and the further degradation products result is listed as “no further degradation products”. In data set [2] (Example 3: 250 ppm astaxanthin composition, heated 126° C., then cooled with fish oil of 23° C.), this compound returned a cis-isomers content of 12%.

The values are drawn from patent US8632832B2, “Direct dissolution” (Phares Pharmaceutical Research N.V., priority 2005, dated 2014).
